Measurements reported in patent US11981701B2, “PRMT5 inhibitors” (Merck Sharp & Dohme LLC, priority 2018, dated 2024).
Where a name gives a salt, the structure may show the parent alone. Read-outs that look alike come from different tables or passages of the source.

Tests used:
[1] = biological target: T1, Full-length (FL)-PRMT5-MEP50 enzyme complex (Homo sapiens, UniProt O14744); test: PRMT5-MEP50 Enzyme Methylation Assay; type: biochemical; conditions: 1.0 nM PRMT5-MEP50, 75 nM biotinylated H4R3(Me1) peptide, 15 μM SAM, 60 min pre-incubation, 150 min at 37° C.
T1 construct: 1.25 nM of Full-length (FL)-PRMT5-MEP50 enzyme complex; made in house; host or cells: baculovirus-transfected Sf21 cells
T1 sequence (O14744 whole entry): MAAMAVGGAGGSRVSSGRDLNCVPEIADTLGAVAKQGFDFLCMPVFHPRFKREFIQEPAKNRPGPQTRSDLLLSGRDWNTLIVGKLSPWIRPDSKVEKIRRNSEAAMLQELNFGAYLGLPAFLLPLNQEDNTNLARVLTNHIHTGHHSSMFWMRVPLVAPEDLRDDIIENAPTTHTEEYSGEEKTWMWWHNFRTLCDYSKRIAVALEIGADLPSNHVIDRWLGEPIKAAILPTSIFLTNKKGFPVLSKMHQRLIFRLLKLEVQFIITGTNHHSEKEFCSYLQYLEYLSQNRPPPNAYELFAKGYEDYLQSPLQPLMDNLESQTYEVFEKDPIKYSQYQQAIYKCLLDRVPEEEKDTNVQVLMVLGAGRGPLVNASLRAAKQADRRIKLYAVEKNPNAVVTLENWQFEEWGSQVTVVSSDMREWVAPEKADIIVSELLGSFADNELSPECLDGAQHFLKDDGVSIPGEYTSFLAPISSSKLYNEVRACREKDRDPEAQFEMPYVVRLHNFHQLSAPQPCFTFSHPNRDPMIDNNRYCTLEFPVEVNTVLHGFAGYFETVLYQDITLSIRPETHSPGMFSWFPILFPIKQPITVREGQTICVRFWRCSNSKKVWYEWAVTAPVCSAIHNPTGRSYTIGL
T1 sequence (Q9BQA1 whole entry partner): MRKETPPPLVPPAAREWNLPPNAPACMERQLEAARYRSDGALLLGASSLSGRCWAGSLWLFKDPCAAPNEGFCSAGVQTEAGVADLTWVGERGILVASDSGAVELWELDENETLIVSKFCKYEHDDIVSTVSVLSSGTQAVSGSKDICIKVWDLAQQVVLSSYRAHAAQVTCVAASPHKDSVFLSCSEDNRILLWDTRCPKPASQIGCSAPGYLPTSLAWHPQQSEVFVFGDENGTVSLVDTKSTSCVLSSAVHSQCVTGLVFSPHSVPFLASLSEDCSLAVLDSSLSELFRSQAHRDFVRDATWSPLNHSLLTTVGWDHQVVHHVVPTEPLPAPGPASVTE
Method: PRMT5/MEP50 biochemical assay is a direct measurement of the methylation activity of the enzyme complex on a short peptide substrate derived from the N-terminus of H4 histone. Methylation experiment is performed with recombinant protein. The assessment of inhibitory effect (IC50) of small molecules is measured by the effectiveness of the compounds to inhibit this reaction.
In this assay, the potency (IC50) of each compound was determined from a twenty-point (1:2 serial dilution; top compound concentration of 100000 nM) titration curve using the following outlined procedure. To each well of a white ProxiPlus 384 well-plate, 100 nL of compound (1% DMSO in final assay volume of 10 μL) was dispensed, followed by the addition of 8 μL of 1× assay buffer (50 mM Bicine pH 8.0, 1 mM DTT, 0.004% Tween20, 0.01% BSA) containing 1.25 nM of Full-length (FL)-PRMT5-MEP50 enzyme complex (recombinant proteins from baculovirus-transfected Sf21 cells: FL-PRMT5; MW=[…] and FL-MEP50; MW=38614) and 1 μL of 150 μM S-(5′-Adenosyl)-L-Methionine Chloride (SAM). Plates were sealed and placed in a 37° C. humidified chamber for a 60 min pre-incubation with compound. Subsequently, each reaction was initiated by the addition of 1 μL 1× assay buffer containing 750 nM biotinylated H4R3(Me1) peptide. The final reaction in each well of 10 μL consists of 1.0 nM PRMT5-MEP50, 75 nM biotinylated-peptide, and 15 μM SAM. Methylation reactions were allowed to proceed for 150 min in a sealed plate at 37° C. Reactions were immediately quenched by the addition of 1 μL of 5% formic acid. Plates were then frozen and shipped to SAMDI™ Tech Inc. to determine the percent conversion from H4R3(Me1) to H4R3(Me2). IC50 values were determined by a 7 parameter biphasic fit model plotting the percent Effect (based on product conversion) vs. (Log10) compound concentrations.

[2] = biological target: T2, PRMT5 (Homo sapiens, UniProt O14744); test: PRMT5 Cell Target Engagement (TE) Assay; type: cell-based; conditions: MCF-7 cells, treated for 3 days, symmetrically dimethylated (SDMA) nuclear proteins by high content imaging; top concentration 10000 nM
T2 construct: seeded with 4000 MCF-7 cells; endogenous in cells; host or cells: MCF-7 cells
T2 sequence (O14744 whole entry): as the sequence (O14744 whole entry) above
T2 sequence (Q9BQA1 whole entry partner): as the sequence (Q9BQA1 whole entry partner) above
From the text: The PRMT5 TE assay is a biomarker assay for identifying compounds that inhibit symmetric dimethylation of arginine (SDMA) of PRMT5 substrates. The following substrates have been reported for PRMT5: histone H2A and H4 R3, Histone H3 R2, Histone H3 R8, spliceosome Sm proteins, ribosomal protein RPS10, p53, FEN1, nucleoplasmin, nucleolin, EGFR and EBNA. The assay will focus on detecting symmetrically dimethylated nuclear proteins using high content imaging technology. Detection of the expression of symmetrically dimethylated nuclear proteins is through a mixture of primary rabbit monoclonal antibodies to SDMA (CST 13222), which in turn recognized by an Alexafluor 488 dye-conjugated anti-rabbit IgG secondary antibody. The IN Cell Analyzer 2200 or Opera-Phenix measures nuclear Alexafluor 488 fluorescent dye intensity that is directly related to the level of expression of symmetrically dimethylated nuclear proteins at the single cell level. Nuclear AF488 dye intensities are compared to the mean value for DMSO treated cells (MIN) to report percent of inhibition for each compound-treated well. In this assay, the cell potency (EC50) of each compound was determined from a ten point (1:3 serial dilution; top compound concentration of 10000 nM) titration curve using the following outlined procedure. Each well of a BD falcon collagen coated black/clear bottom 384-well plate was seeded with 4000 MCF-7 cells in 30 μl media and allowed to attach for 5 h. Media is ATCC-formulated Eagle's Minimum Essential Medium, Catalog No. 30-2003. To make the complete growth medium, add the following components to the base medium: 0.01 mg/ml human recombinant insulin; fetal bovine serum to a final concentration of 10%. Additional 30 μl of media containing 2× compounds were added to each well. Cells were treated for 3 days in 37° C. CO2 incubator. On day 3, cells were fixed with Cytofix, permeabilized with 0.4% Triton-X-100/Cytofix, and washed with D-PBS without Ca/Mg. Cells were blocked with Licor Odessey blocking reagent for 1 h at room temperature, followed by incubation with anti-SDMA (1:1000) antibody at 4° C. overnight. 1° antibody was removed, followed by three washings with DPBS without Ca/Mg and 0.05% Tween20. Hoechst (5 μg/ml), Cell Mask deep stain (1:2000) and Alexa488-conjugated goat anti-rabbit IgG (2 μg/mL) was added for 1 hour at room temperature. A final washing step (three washes) was performed before sealing plate for imaging on In Cell Analyzer 2200 or Opera-Phenix. Images from analyzer were uploaded to Columbus (at WP or BOS) for image analysis. IC50 values were determined by 4 parameters robust fit of percent fluorescence units vs. (Log10) compound concentrations.

[3] = first value of 7 parameter biphasic fit, read-out: Enzyme Methylation Assay EC50_1
[4] = second value of 7 parameter biphasic fit, read-out: Enzyme Methylation Assay EC50_2

| Structure (SMILES) | EC50 [1, 3] | EC50 [1, 4] | EC50 [2] |
| --- | --- | --- | --- |
| Nc1nc2cc(OC[C@H]3O[C@@H](n4cnc(N)c5ncnc4-5)[C@H](O)[C@@H]3O)ccc2cc1Br [Example 1, 3-[5-O-(2-amino-3-bromo-7-quinolinyl)-b-D-ribofuranosyl]-3H-purin-6-amine] | 1.37 nM | 85.1 nM | 60.6 nM |
| Nc1ccn([C@@H]2O[C@H](COc3ccc4cc(Br)c(N)nc4c3)[C@@H](O)[C@H]2O)c2ncnc1-2 [Example 2, 4-[5-O-(2-amino-3-bromo-7-quinolinyl)-b-D-ribofuranosyl]-4H-imidazo[4,5-b]pyridin-7-amine] | 0.662 nM | 18.3 nM | 19.2 nM |
| Nc1nc2cc(OC[C@H]3O[C@@H](n4nc5ncnc-5c(N)n4)[C@H](O)[C@@H]3O)ccc2cc1Br [Example 3, 2-[5-O-(2-amino-3-bromo-7-quinolinyl)-b-D-ribofuranosyl]-2H-imidazo[4,5-d][1,2,3]triazin-4-amine trifluoroacetate] | 1620 nM |  | > 10000 nM |
| Nc1ccn([C@@H]2C[C@H](CCc3ccc4cc(Br)c(N)nc4c3)[C@@H](O)[C@H]2O)c2ncnc1-2 [Example 4, (1S,2R,3S,5R)-3-[2-(2-amino-3-bromo-7-quinolinyl)ethyl]-5-(7-amino-4H-imidazo[4,5-b]pyridin-4-yl)-1,2-cyclopentanediol] | 0.489 nM |  | 2.54 nM |
| Cc1ccn([C@@H]2C[C@H](CCc3ccc4cc(Br)c(N)nc4c3)[C@@H](O)[C@H]2O)c2ncnc1-2 [Example 5, (1S,2R,3S,5R)-3-[2-(2-amino-3-bromo-7-quinolinyl)ethyl]-5-(7-methyl-4H-imidazo[4,5-b]pyridin-4-yl)-1,2-cyclopentanediol] | 0.32 nM |  | 0.508 nM |
| Nc1nc2cc(CC[C@H]3C[C@@H](n4cnc(N)c5ncnc4-5)[C@H](O)[C@@H]3O)ccc2cc1Br [Example 6, (1S,2R,3S,5R)-3-[2-(2-amino-3-bromo-7-quinolinyl)ethyl]-5-(6-amino-3H-purin-3-yl)-1,2-cyclopentanediol hydrochloride] | 0.264 nM |  | 1.69 nM |
| Nc1ccn([C@@H]2C[C@H](CCc3ccc4ccc(NCC(F)F)nc4c3)[C@@H](O)[C@H]2O)c2ncnc1-2 [Example 7, (1R,2S,3R,5S)-3-(7-amino-4H-imidazo[4,5-b]pyridin-4-yl)-5-(2-{2-[(2,2-difluoroethyl)amino]-7-quinolinyl}ethyl)-1,2-cyclopentanediol] | 0.231 nM |  | 16.1 nM |
| Cc1ccn([C@@H]2C[C@H](CCc3ccc4ccc(NCC(F)F)nc4c3)[C@@H](O)[C@H]2O)c2ncnc1-2 [Example 8, (1S,2R,3S,5R)-3-(2-{2-[(2,2-difluoroethyl)amino]-7-quinolinyl}ethyl)-5-(7-methyl-4H-imidazo[4,5-b]pyridin-4-yl)-1,2-cyclopentanediol] | 0.253 nM |  | 1.94 nM |
| Cc1ncn([C@@H]2C[C@H](CCc3ccc4cc(Br)c(N)nc4c3)[C@@H](O)[C@H]2O)c2ncnc1-2 [Example 9, (1S,2R,3S,5R)-3-[2-(2-amino-3-bromo-7-quinolinyl)ethyl]-5-(6-methyl-3H-purin-3-yl)-1,2-cyclopentanediol] | 0.282 nM |  | 1.05 nM |
| Cc1cc2ncnc-2n([C@@H]2C[C@H](CCc3ccc4cc(Br)c(N)nc4c3)[C@@H](O)[C@H]2O)c1 [Example 10, (1S,2R,3S,5R)-3-[2-(2-amino-3-bromo-7-quinolinyl)ethyl]-5-(6-methyl-4H-imidazo[4,5-b]pyridin-4-yl)-1,2-cyclopentanediol trifluoroacetate] | 1.62 nM |  | 116 nM |
| CCc1cc2ncnc-2n([C@@H]2C[C@H](CCc3ccc4cc(Br)c(N)nc4c3)[C@@H](O)[C@H]2O)c1 [Example 11, (1S,2R,3S,5R)-3-[2-(2-amino-3-bromo-7-quinolinyl)ethyl]-5-(6-ethyl-4H-imidazo[4,5-b]pyridin-4-yl)-1,2-cyclopentanediol trifluoroacetate] | 0.96 nM |  | 30.2 nM |
| Cc1ccn([C@@H]2O[C@H](CCc3ccc4cc(Br)c(N)nc4c3)[C@@H](O)[C@H]2O)c2ncnc1-2 [Example 12, (2R,3S,4R,5R)-2-(2-(2-amino-3-bromoquinolin-7-yl)ethyl)-5-(7-methyl-4H-imidazo [4,5-b]pyridin-4-yl)tetrahydrofuran-3,4-diol] | 0.58 nM |  | 1.7 nM |
| Cc1ccn([C@@H]2C[C@H](COc3ccc4cc(Br)c(N)nc4c3)[C@@H](O)[C@H]2O)c2ncnc1-2 [Example 13, (1S,2R,3R,5R)-3-(((2-amino-3-bromoquinolin-7-yl)oxy)methyl)-5-(7-methyl-4H-imidazo[4,5-b]pyridin-4-yl)cyclopentane-1,2-diol] | 0.404 nM |  | 61.5 nM |
